How the values were obtained:
[1] = target: T1, UDP-glucuronosyltransferase 2B7 (Homo sapiens, UniProt P16662); assay: Inhibition of […] in pooled mixed-gender human liver microsomes using 4-methylumbelliferone substrate by HPLC method; type: ADME
T1 sequence (P16662 whole entry): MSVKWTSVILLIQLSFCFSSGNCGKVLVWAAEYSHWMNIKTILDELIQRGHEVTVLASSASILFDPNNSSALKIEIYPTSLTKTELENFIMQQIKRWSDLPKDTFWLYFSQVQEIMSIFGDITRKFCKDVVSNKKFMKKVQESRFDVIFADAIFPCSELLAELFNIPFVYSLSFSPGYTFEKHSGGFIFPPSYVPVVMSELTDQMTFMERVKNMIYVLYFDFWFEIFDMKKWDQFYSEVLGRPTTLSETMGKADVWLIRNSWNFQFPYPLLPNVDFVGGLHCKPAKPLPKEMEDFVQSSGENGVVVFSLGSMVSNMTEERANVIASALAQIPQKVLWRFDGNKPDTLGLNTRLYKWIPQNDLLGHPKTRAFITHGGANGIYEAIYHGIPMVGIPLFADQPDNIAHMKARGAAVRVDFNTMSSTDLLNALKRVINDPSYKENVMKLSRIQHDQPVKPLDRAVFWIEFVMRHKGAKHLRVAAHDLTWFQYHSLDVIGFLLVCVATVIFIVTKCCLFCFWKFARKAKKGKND

[2] = target: T2, UDP-glucuronosyltransferase 1A1 (Homo sapiens, UniProt P22309); assay: Drug metabolism assessed as UGT1A1-mediated compound glucuronidation in pooled mixed-gender human liver microsomes at 50 uM preincubated at 37 degC for 3 mins before UDPGA addition by HPLC method; type: ADME
T2 sequence (P22309 whole entry): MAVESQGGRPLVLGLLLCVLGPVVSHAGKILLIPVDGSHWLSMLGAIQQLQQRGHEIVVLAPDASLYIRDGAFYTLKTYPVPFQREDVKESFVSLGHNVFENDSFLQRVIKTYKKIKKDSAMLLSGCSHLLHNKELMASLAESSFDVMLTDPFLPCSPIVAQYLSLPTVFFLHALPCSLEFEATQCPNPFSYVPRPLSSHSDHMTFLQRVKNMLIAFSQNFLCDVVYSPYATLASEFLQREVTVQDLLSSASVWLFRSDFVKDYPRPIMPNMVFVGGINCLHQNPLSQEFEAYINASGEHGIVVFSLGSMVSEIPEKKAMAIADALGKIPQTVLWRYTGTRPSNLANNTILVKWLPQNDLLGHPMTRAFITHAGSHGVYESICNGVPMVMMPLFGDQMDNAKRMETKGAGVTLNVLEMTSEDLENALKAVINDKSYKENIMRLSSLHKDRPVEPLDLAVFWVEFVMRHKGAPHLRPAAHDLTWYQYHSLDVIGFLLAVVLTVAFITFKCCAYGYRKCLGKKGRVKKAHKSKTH

[3] = target: T1, UDP-glucuronosyltransferase 2B7; assay: Activation of UGT2B7 in pooled mixed-gender human liver microsomes at 50 uM preincubated at 37 degC for 3 mins before UDPGA addition by HPLC method; type: ADME
Cytochrome P450 3A4 [4] = target: T3, Cytochrome P450 3A4 (Homo sapiens, UniProt P08684); assay: Activation of CYP3A4 in pooled mixed-gender human liver microsomes using testosterone substrate in presence of NADPH pre-incubated for 3 mins by HPLC-UV detection method; type: ADME
T3 sequence (P08684 whole entry): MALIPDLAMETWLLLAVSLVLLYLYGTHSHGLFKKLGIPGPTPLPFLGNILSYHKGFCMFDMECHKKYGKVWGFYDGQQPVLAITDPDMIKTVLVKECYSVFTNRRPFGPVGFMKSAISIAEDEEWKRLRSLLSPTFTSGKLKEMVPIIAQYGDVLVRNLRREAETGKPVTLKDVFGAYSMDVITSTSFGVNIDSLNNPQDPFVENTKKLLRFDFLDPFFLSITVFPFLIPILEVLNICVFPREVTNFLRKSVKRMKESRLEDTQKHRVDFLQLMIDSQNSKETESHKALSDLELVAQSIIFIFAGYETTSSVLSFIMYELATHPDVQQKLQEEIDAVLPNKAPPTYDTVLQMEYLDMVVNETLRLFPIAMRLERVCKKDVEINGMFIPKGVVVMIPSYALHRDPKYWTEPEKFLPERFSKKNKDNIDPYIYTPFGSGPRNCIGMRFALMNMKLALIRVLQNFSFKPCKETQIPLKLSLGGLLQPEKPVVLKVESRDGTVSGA

Liver microsome = assay: Half life in pooled mixed-gender human liver microsomes at 50 uM in presence of NADPH pre-incubated for 3 mins before NADPH addition followed by incubation for 60 mins by reversed-phase HPLC method; type: ADME; details: 1 h
[5] = Dissociation constant, pKa of the compound; type: physicochemical
Cytochrome P450 2D6 [6] = target: T4, Cytochrome P450 2D6 (Homo sapiens, UniProt P10635); assay: Inhibition of […] in pooled mixed-gender human liver microsomes at <25 uM using dextromethorphan substrate in presence of NADPH pre-incubated for 3 mins by HPLC-UV detection method; type: ADME
T4 sequence (P10635 whole entry): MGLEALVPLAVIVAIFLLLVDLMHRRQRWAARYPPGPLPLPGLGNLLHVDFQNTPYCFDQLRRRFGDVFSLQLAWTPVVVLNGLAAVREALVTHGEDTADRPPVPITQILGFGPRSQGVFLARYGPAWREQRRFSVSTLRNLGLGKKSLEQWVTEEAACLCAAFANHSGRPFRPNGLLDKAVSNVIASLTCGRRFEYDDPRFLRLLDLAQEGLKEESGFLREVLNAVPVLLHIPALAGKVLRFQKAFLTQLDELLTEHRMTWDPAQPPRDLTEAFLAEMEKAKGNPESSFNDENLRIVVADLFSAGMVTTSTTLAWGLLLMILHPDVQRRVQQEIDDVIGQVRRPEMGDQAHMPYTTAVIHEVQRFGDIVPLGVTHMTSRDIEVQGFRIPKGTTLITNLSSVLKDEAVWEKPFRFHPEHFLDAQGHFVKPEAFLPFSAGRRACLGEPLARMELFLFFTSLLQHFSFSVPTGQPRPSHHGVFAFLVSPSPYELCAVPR

[7] = target: T5, UDP-glucuronosyltransferase 1A6 (Homo sapiens, UniProt P19224); assay: Activation of UGT1A6 in pooled mixed-gender human liver microsomes at 50 uM preincubated at 37 degC for 3 mins before UDPGA addition by HPLC method; type: ADME
T5 sequence (P19224 whole entry): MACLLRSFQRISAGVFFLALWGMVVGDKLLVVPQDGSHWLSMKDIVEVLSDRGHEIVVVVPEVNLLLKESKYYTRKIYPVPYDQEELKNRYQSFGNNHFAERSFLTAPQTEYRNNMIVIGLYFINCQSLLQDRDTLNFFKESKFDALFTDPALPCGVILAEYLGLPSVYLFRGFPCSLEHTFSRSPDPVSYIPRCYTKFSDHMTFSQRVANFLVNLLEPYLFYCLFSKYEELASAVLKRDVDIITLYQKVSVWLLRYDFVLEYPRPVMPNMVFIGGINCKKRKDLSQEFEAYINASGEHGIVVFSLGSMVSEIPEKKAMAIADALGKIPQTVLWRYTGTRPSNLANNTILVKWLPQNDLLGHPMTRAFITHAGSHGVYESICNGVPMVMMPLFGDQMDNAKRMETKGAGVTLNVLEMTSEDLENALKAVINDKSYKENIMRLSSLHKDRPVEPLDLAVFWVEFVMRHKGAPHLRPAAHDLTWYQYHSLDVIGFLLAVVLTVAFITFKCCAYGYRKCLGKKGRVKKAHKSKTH

[8] = target: T6, UDP-glucuronosyltransferase 1A9 (Homo sapiens, UniProt O60656); assay: Drug metabolism assessed as UGT1A9-mediated compound glucuronidation in pooled mixed-gender human liver microsomes at 50 uM preincubated at 37 degC for 3 mins before UDPGA addition by HPLC method; type: ADME
T6 sequence (O60656 whole entry): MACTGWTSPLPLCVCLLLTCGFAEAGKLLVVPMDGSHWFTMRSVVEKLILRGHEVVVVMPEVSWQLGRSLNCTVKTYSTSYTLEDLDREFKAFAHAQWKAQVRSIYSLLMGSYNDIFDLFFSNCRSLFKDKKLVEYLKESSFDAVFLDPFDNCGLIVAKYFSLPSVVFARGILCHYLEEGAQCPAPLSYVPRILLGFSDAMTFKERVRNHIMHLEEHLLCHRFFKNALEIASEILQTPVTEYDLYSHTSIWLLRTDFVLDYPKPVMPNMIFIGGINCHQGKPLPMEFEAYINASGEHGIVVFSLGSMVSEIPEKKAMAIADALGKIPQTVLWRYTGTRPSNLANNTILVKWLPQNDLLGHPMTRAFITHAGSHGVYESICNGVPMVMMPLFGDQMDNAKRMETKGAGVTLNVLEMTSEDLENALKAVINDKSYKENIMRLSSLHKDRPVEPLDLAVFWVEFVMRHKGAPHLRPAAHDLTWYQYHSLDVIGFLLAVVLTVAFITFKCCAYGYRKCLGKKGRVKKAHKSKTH

[9] = target: T7, UDP-glucuronosyltransferase 1A4 (Homo sapiens, UniProt P22310); assay: Inhibition of UGT1A4 in pooled mixed-gender human liver microsomes using 4-methylumbelliferone substrate by HPLC method; type: ADME
T7 sequence (P22310 whole entry): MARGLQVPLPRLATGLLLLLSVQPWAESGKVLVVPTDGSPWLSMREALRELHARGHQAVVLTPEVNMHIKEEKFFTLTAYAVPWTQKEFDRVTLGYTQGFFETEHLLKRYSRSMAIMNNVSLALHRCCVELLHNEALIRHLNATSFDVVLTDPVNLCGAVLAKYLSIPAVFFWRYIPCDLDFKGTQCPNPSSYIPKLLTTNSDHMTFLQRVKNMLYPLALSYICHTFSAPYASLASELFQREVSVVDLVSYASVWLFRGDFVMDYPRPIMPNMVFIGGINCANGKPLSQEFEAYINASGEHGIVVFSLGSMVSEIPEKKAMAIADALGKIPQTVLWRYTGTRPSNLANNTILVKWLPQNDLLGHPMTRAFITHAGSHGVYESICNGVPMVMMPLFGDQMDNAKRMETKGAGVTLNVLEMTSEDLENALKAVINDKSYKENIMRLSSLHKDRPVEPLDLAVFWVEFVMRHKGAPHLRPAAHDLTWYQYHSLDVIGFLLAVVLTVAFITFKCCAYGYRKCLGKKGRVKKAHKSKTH

[10] = target: T7, UDP-glucuronosyltransferase 1A4; assay: Activation of UGT1A4 in pooled mixed-gender human liver microsomes at 100 uM preincubated at 37 degC for 3 mins before UDPGA addition by HPLC method; type: ADME
[11] = target: T5, UDP-glucuronosyltransferase 1A6; assay: Drug metabolism assessed as UGT1A6-mediated compound glucuronidation in pooled mixed-gender human liver microsomes at 50 uM preincubated at 37 degC for 3 mins before UDPGA addition by HPLC method; type: ADME
Cytochrome P450 3A4 [12] = target: T3, Cytochrome P450 3A4; assay: Inhibition of CYP3A4 in pooled mixed-gender human liver microsomes at <25 uM using triazolam substrate in presence of NADPH pre-incubated for 3 mins by HPLC-UV detection method; type: ADME
Cytochrome P450 3A4 [13] = target: T3, Cytochrome P450 3A4; assay: Inhibition of CYP3A4 in pooled mixed-gender human liver microsomes using testosterone substrate in presence of NADPH pre-incubated for 3 mins by HPLC-UV detection method; type: ADME
[14] = target: T5, UDP-glucuronosyltransferase 1A6; assay: Inhibition of UGT1A6 in pooled mixed-gender human liver microsomes using 4-methylumbelliferone substrate by HPLC method; type: ADME
Cytochrome P450 2D6 [15] = target: T4, Cytochrome P450 2D6; assay: Inhibition of […] in pooled mixed-gender human liver microsomes using dextromethorphan substrate in presence of NADPH pre-incubated for 3 mins by HPLC-UV detection method; type: ADME
[16] = target: T2, UDP-glucuronosyltransferase 1A1; assay: Activation of UGT1A1 in pooled mixed-gender human liver microsomes at 50 uM preincubated at 37 degC for 3 mins before UDPGA addition by HPLC method; type: ADME
[17] = target: T6, UDP-glucuronosyltransferase 1A9; assay: Activation of UGT1A9 in pooled mixed-gender human liver microsomes at 50 uM preincubated at 37 degC for 3 mins before UDPGA addition by HPLC method; type: ADME
Cytochrome P450 3A4 [18] = target: T3, Cytochrome P450 3A4; assay: Activation of CYP3A4 in pooled mixed-gender human liver microsomes using triazolam substrate in presence of NADPH pre-incubated for 3 mins by HPLC-UV detection method; type: ADME
Cytochrome P450 3A4 [19] = target: T3, Cytochrome P450 3A4; assay: Inhibition of CYP3A4 in pooled mixed-gender human liver microsomes at <25 uM using testosterone substrate in presence of NADPH pre-incubated for 3 mins by HPLC-UV detection method; type: ADME
Cytochrome P450 2D6 [20] = target: T4, Cytochrome P450 2D6; assay: Activation of […] in pooled mixed-gender human liver microsomes using dextromethorphan substrate in presence of NADPH pre-incubated for 3 mins by HPLC-UV detection method; type: ADME
[21] = Toxicity against macrophages (unknown origin) assessed cell viability at 4 times MIC level after 7 days by MTT assay; type: cell-based, Macrophage; details: read-out: Activity
[22] = target: T6, UDP-glucuronosyltransferase 1A9; assay: Inhibition of UGT1A9 in pooled mixed-gender human liver microsomes using 4-methylumbelliferone substrate by HPLC method; type: ADME
[23] = target: T7, UDP-glucuronosyltransferase 1A4; assay: Activation of UGT1A4 in pooled mixed-gender human liver microsomes at 50 uM preincubated at 37 degC for 3 mins before UDPGA addition by HPLC method; type: ADME
[24] = target: T2, UDP-glucuronosyltransferase 1A1; assay: Inhibition of UGT1A1 in pooled mixed-gender human liver microsomes using 4-methylumbelliferone substrate by HPLC method; type: ADME
Cytochrome P450 3A4 [25] = target: T3, Cytochrome P450 3A4; assay: Inhibition of CYP3A4 in pooled mixed-gender human liver microsomes using triazolam substrate in presence of NADPH pre-incubated for 3 mins by HPLC-UV detection method; type: ADME
[26] = tested on: Human immunodeficiency virus 1; assay: Antiviral activity against HIV1 infected in human MAGI-R5 cells; type: functional, organism-based; details: Human immunodeficiency virus 1, MAGI-R5
[27] = target: T1, UDP-glucuronosyltransferase 2B7; assay: Drug metabolism assessed as UGT2B7-mediated compound glucuronidation in pooled mixed-gender human liver microsomes at 50 uM preincubated at 37 degC for 3 mins before UDPGA addition by HPLC method; type: ADME
[28] = target: T7, UDP-glucuronosyltransferase 1A4; assay: Drug metabolism assessed as UGT1A4-mediated compound glucuronidation in pooled mixed-gender human liver microsomes at 50 uM preincubated at 37 degC for 3 mins before UDPGA addition by HPLC method; type: ADME

## O=C(/C=C(\O)C(=O)N1CCN(c2ccc(-n3cccc3)cc2)CC1)c1cc(Cc2cc(F)cc(F)c2)cn(Cc2ccccc2F)c1=O
[1]
  IC50: > 300 µM
[2]
  Drug metabolism: metabolite_notdetected
[3]
  Activity: Not Active
Cytochrome P450 3A4 [4]
  Activity: Not Active
Liver microsome
  t1/2: 14.4 h
[5]
  pKa: 9
Cytochrome P450 2D6 [6]
  inhibition (INH): Not Active
[7]
  Activity: Not Active
[8]
  Drug metabolism: metabolite_notdetected
[9]
  IC50: Not Active
[10]
  Activity: Active
[11]
  Drug metabolism: metabolite_notdetected
Cytochrome P450 3A4 [12]
  inhibition (INH): Not Active
Cytochrome P450 3A4 [13]
  IC50: > 50 µM
[14]
  IC50: > 300 µM
Cytochrome P450 2D6 [15]
  IC50: > 185 µM
[16]
  Activity: Not Active
[17]
  Activity: Not Active
Cytochrome P450 3A4 [18]
  Activity: Not Active
Cytochrome P450 3A4 [19]
  inhibition (INH): Not Active
Cytochrome P450 2D6 [20]
  Activity: Not Active
[21]
  viability at 168 h, 4 times MIC: > 85%
[22]
  IC50: > 300 µM
[23]
  Activity: Not Active
[24]
  IC50: > 300 µM
Cytochrome P450 3A4 [25]
  IC50: > 85 µM
[26]
  IC50: 0.05 µM
[27]
  Drug metabolism: metabolite_notdetected
[28]
  Drug metabolism: metabolite_notdetected

## Cc1nnc(C(=O)NC(C)(C)c2nc(C(=O)NCc3ccc(F)cc3)c(O)c(=O)n2C)o1 [RALTEGRAVIR]
[2]
  Drug metabolism: metabolite_detected
[8]
  Drug metabolism: metabolite_detected
[11]
  Drug metabolism: metabolite_detected
[27]
  Drug metabolism: metabolite_detected
[28]
  Drug metabolism: metabolite_detected

## [H]/N=C(/N)N[C@H]1[C@H](O)[C@@H](O)[C@H](O[C@@H]2O[C@@H](C)[C@](O)(C=O)[C@H]2O[C@@H]2O[C@@H](CO)[C@H](O)[C@@H](O)[C@@H]2NC)[C@@H](N/C(N)=N\[H])[C@@H]1O [STREPTOMYCIN]
[21]
  viability at 168 h, 4 times MIC: 90%

Reference: ChEMBL document CHEMBL3397011, “A novel molecule with notable activity against multi-drug resistant tuberculosis” (Bioorg Med Chem Lett, 2015)
